This is an account of results in patent US6271220A, “Anti-angiogenic agents” (Allergan Sales, Inc., priority 1999, dated 2001).

The assay has as its system Purified bovine brain tubulin. Briefly: in vitro tubulin polymerization assay (turbidimetric). The settings on record: GTP-initiated, 30 C, turbidity monitored for 15 minutes, read-out: 1C50, inhibitory effects on tubulin polymerization in vitro. In kind it is biochemical. As to the method: Anti-mitotic activity can be evaluated by testing the ability of a compound of the invention to inhibit tubulin polymerization and microtubule assembly in vitro. The tubulin/microtubule system is instrumental in the formation in the mitotic spindle, making it a prime target for anti-mitotic agents. In vitro tubulin polymerization assays are performed to serve as an estimate of the in vivo cytotoxic activity of designated compounds. Purified bovine brain tubulin (120 μl, 4 mg/ml), 240 μl PME (100 mm piperazine-n, n-bis(2-ethane-sulfonic acid i.e., pipes, ph 6.9, 1 mm MgSO4, 2 mm ethyleneglycol-bis-(β-aminoethyl ether) N, N, N', N'-tetraacetic acid i.e. EGTA and 40 μl dimethyl sulfoxide i.e. DMSO, are combined and transferred to a 1 ml quartz cuvet. Polymerization is initiated by the addition of guanosine triphosphate i.e. GTP, (8 μl, 50 mM) and monitored turbidometrically in a Varian DMS 90 UV-Vis spectrophotometer in a temperature controlled cuvet holder at 30_C. Tubidity increases with increasing tubulin polymerization, giving a false absorbence reading and, over time, a polymerization curve. […] 200 μM solutions (in DMSO) of compounds to be assayed were prepared, and substituted for portions of the DMSO in the polymerization mixture.
The method is given above in-vitro assay for anti-miotic activity.

“4 Chloro-A-Homo-4,5(10)-estradien-2,17β-diol-3-one [Compound 11b]”: the IC50 stood at 9.8 µM.
Under `C[C@]12CC[C@@H]3c4cccc(=O)cc4CC[C@H]3[C@@H]1CC[C@@H]2O` [Compound 3, A-Homo-1(10), 2,4a-estratrien-17β-ol-4-one] stands 7.2 µM.
Take `C[C@]12CC[C@@H]3c4ccc(=O)ccc4CC[C@H]3[C@@H]1CC[C@@H]2O` [Compound 6, A-Homo-1,4,5(10)-estratrien-17β-ol-3-one]: the IC50 was 4.4 µM.
On to `C[C@]12CC[C@@H]3c4ccc(Br)c(=O)cc4CC[C@H]3[C@@H]1CC[C@@H]2O` [Compound 8a, 3-Bromo-A-Homo-1(10), 2,4a-estratrien-17β-ol-4-one], for which the IC50 is 2.9 µM.
As for `C[C@]12CC[C@@H]3c4ccc(Cl)c(=O)cc4CC[C@H]3[C@@H]1CC[C@@H]2O` [Compound 8b, 3-Chloro -A-Homo-1(10), 2,4a-estratrien-17β ol-4-one], the IC50 turned out to be 2.8 µM.
As to `COc1ccc2c(cc1=O)CC[C@@H]1[C@@H]2CC[C@]2(C)[C@@H](O)CC[C@@H]12` [Compound 8c, 3-Methoxy-A-Homo-1(10), 2,4a-estratrien-17β-ol-4-one], the IC50 turned out to be 8.1 µM.
Under `COc1cc2c(ccc1=O)[C@H]1CC[C@]3(C)[C@@H](O)CC[C@H]3[C@@H]1CC2` [Compound 11c, 4-Methoxy-A-Homo-1,4,5(10)-estratrien-17β-ol-3-one] stands 2.1 µM.
For `CCOc1cc2c(ccc1=O)[C@H]1CC[C@]3(C)[C@@H](O)CC[C@H]3[C@@H]1CC2` [Compound 11d, 3-Ethoxy-A-Homo-1,4,5(10)-estratrien-17β-ol-3-one], the IC50 worked out at 5.9 µM.
Under `COc1ccc2c(cc1=O)[C@H]1CC[C@]3(C)[C@@H](O)CC[C@H]3[C@@H]1CC2` [Compound 12, 3-Methoxy-A-Homo-1(10), 3,4a-estratrien-17β-ol-2-one] stands 27.5 µM; under `COc1cc2c(ccc1=O)CC[C@@H]1[C@@H]2CC[C@]2(C)[C@@H](O)CC[C@@H]12` [Compound 13, 2-Methoxy-A-Homo-1,4,5(10)-estratrien-17β-ol-3-one], 29.8 µM; under `C[C@]12CC[C@@H]3c4ccc(N)c(=O)cc4CC[C@H]3[C@@H]1CC[C@@H]2O` [Compound 14, 3-Amino-A-homo-1(10), 2,4a-estratrien-17β-ol-4-one], 14.4 µM.
In the case of `C[C@]12CC[C@@H]3c4cc(N)c(=O)ccc4CC[C@H]3[C@@H]1CC[C@@H]2O` [Compound 15a, 2-Amino-A-homo-1,4,5(10)-estratrien-17β-ol-3-one], the IC50 worked out at 16.5 µM.
As for `C[C@]12CC[C@@H]3c4ccc(=O)c(N)cc4CC[C@H]3[C@@H]1CC[C@@H]2O` [Compound 15b, 4-Amino-A-homo-1,4,5(10)-estratrien-17β-ol-3-one], the figure is 9.2 µM; as for `C[C@]12CC[C@@H]3c4cc(O)c(=O)ccc4CC[C@H]3[C@@H]1CC[C@@H]2O` [Compound 16a, A-homo-1,4,5(10)-estratrien-2, 17β-diol-3-one], 14.9 µM; as for `C[C@]12CC[C@@H]3c4ccc(O)c(=O)cc4CC[C@H]3[C@@H]1CC[C@@H]2O` [Compound 16b, A-homo-1(10), 2,4a-estratrien-3,17β-diol-3-one], 22.8 µM.
Regarding `C[C@]12CC[C@@H]3c4ccc([N+](=O)[O-])c(=O)cc4CC[C@H]3[C@@H]1CC[C@@H]2O` [Compound 17a, 3-Nitro-A-homo-1(10), 2,4a-estratrien-17β-ol-4-one], the IC50 was found to be 52 µM.
Under `C=Cc1ccc2c(cc1=O)CC[C@@H]1[C@@H]2CC[C@]2(C)[C@@H](O)CC[C@@H]12` [Compound 18, 3-Vinyl-A-homo-1(10), 2,4a-estratrien-17β-ol-4-one] stands 14.2 µM.
As for `CNc1ccc2c(cc1=O)CC[C@@H]1[C@@H]2CC[C@]2(C)[C@@H](O)CC[C@@H]12` [Compound 19a, 3-Methylamino-A-homo-1(10), 2,4a-estratrien-17β-ol-4-one], the figure is 60.7 µM.
Under `CN(C)c1ccc2c(cc1=O)CC[C@@H]1[C@@H]2CC[C@]2(C)[C@@H](O)CC[C@@H]12` [Compound 19b, 3-Dimethylamino-A-homo-1(10), 2,4a-estratrien-17β-ol-4-one] stands 14.3 µM; under `CNc1cc2c(ccc1=O)[C@H]1CC[C@]3(C)[C@@H](O)CC[C@H]3[C@@H]1CC2` [Compound 19c, 4-Methylamino-A-homo-1,4,5(10)-estratrien-17β-ol-3-one], 19.4 µM; under `CN(C)c1cc2c(ccc1=O)[C@H]1CC[C@]3(C)[C@@H](O)CC[C@H]3[C@@H]1CC2` [Compound 19d, 4-Dimethylamino-A-homo-1,4,5(10)-estratrien-17β-ol-3-one], 46.8 µM.
